Test results taken from US7402696B2, “Benzene compounds” (Ajinomoto Co., Inc., priority 2004, dated 2008).

These compounds were tested against T1, ACC (acetyl CoA carboxylase) purified from liver of male SD rat (Rattus norvegicus, UniProt P11497) (assay: Measurement of ACC inhibition activity ([14C]-NaHCO3 incorporation)). Conditions: ACC inhibition activity rate at 1 μM; Table 2-III, Mode 3 acetylene/oxadiazole/thiazole compounds (numbers = x-III); read-out: ACC Inhibition (%).
T1 construct: applied to a monomeric avidin sepharose column, and washed with buffer B. The ACC was eluted with buffer B containing 2 mM d-biotin; from tissue; host or cells: liver of male SD rat
Type: biochemical
Summary of the method: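 Enzyme was avidin-purified from livers of rats fasted and then sucrose-fed. Compounds were preincubated with ACC for 30 min at 37° C in Tris-HCl pH 7.5 with MgCl2, citrate and DTT. [14C]-NaHCO3 solution with 8 mM ATP and 0.5 mM acetyl CoA was added for 10 min at 37° C. Acid-stable 14C gave % inhibition at 1 μM.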
`CC(C)c1ccc(S(=O)(=O)NC(=O)c2ccc3c(c2)CN(c2cccc(-c4csc(-c5ccccc5)n4)c2)C3)cc1` [compound 118] gave an inhibition at 1 µM of 60%. Compound `CC(C)c1ccc(S(=O)(=O)NC(=O)C(Cc2ccccc2)NC(=O)Nc2ccc(-c3csc(-c4ccccc4)n3)cc2)cc1` (stereo not shown) [compound 130] has an inhibition at 1 µM of 88%.

Same assay, conditions: ACC inhibition activity rate at 1 μM; Table 4-IV, Mode 4 benzenediamine compounds (numbers = x-IV); read-out: ACC Inhibition (%)
`CSc1ccccc1CNc1cc(-c2noc(-c3cccc(C(=O)NS(=O)(=O)c4ccccc4)c3)n2)ccc1N(C)CCC(C)C` [compound 115] gave an inhibition at 1 µM of 100%. `Cc1ccccc1S(=O)(=O)NC(=O)CC(NC(=O)c1ccc(N(C)CCC(C)C)c(N(C)Cc2ccccc2)c1)C1CCCCC1` (stereo not shown) [compound 118] gave an inhibition at 1 µM of 93%. In the case of `Cc1ccccc1S(=O)(=O)NC(=O)CC(NC(=O)c1ccc(N(C)CCC(C)C)c(N(C)CC2CCCCC2)c1)C1CCCCC1` (stereo not shown) [compound 119], the inhibition at 1 µM was 94%. For `CC(C)CCN(C)c1ccc(C(=O)NC(CC(=O)NS(=O)(=O)c2ccccc2)c2ccccc2)cc1N(C)Cc1ccccc1` (stereo not shown) [compound 121], the inhibition at 1 µM was 90%. `Cc1ccccc1S(=O)(=O)NC(=O)CC(NC(=O)c1ccc(N(C)CCC(C)C)c(NCc2ccccc2O)c1)C1CCCCC1` (stereo not shown) [compound 122] was tested, and the inhibition at 1 µM was 67%. Work on `Cc1ccccc1S(=O)(=O)NC(=O)CC(NC(=O)c1ccc(N(C)CCC(C)C)c(NCc2ccccc2[N+](=O)[O-])c1)C1CCCCC1` (stereo not shown) [compound 124] yielded an inhibition at 1 µM of 64%. `Cc1ccccc1S(=O)(=O)NC(=O)CC(NC(=O)c1ccc(N(C)CCC(C)C)c(NCCc2ccccc2)c1)C1CCCCC1` (stereo not shown) [compound 125] was tested, and the inhibition at 1 µM was 98%. Compound `Cc1ccccc1S(=O)(=O)NC(=O)CC(NC(=O)c1ccc(N(C)CCC(C)C)c(NCC2CCCC2)c1)C1CCCCC1` (stereo not shown) [compound 126] has an inhibition at 1 µM of 91%. With `Cc1ccccc1S(=O)(=O)NC(=O)c1cccc(-c2nc(-c3ccc(N(C)CCC(C)C)c(N4Cc5ccccc5C4=O)c3)no2)c1` [compound 127] the inhibition at 1 µM was 92%. Work on `Cc1ccccc1S(=O)(=O)NC(=O)c1cccc(-c2nc(-c3ccc(N(C)CCC(C)C)c(N4COc5ccccc5C4)c3)no2)c1` [compound 128] yielded an inhibition at 1 µM of 100%. `Cc1ccccc1S(=O)(=O)NC(=O)c1cccc(-c2nc(-c3ccc(N(C)CCC(C)C)c(NCc4ccccc4[N+](=O)[O-])c3)no2)c1` [compound 129] showed an inhibition at 1 µM of 100%.
